Source: US10717733B2, “Haloallylamine indole and azaindole derivative inhibitors of lysyl oxidases and uses thereof” (PHARMAXIS LTD., priority 2016, dated 2020)
Counter-ions that a name gives are not always drawn.

Experiments:
[1] = system: CCl4 induced liver fibrosis; test: CCl4 induced liver fibrosis model; format: in vivo, rat; settings: 0.1-100 mg/Kg
Method: An analysis of the use of LOXL2 inhibitors to treat inflammatory/fibrotic diseases is performed through the use of a CCl4 induced liver fibrosis model. Liver injury is frequently followed by complete parenchymal regeneration due to regenerative potency of hepatocytes. Continuous liver injury due to the administration of CCl4 leads to extracellular matrix accumulation, accompanied by recurrent hepatocyte necrosis, inflammation, and regenerative processes, causing liver fibrosis and consequently liver cirrhosis (see Natsume, M., et al., Attenuated liver fibrosis and depressed serum albumin levels in carbon tetrachloride-treated IL-6-deficient mice. J. Leukoc. Biol., 1999, 66, 601-608 also See Yao, Q, Y., et al. Inhibition by curcumin of multiple sites of the transforming growth factor-beta1 signalling pathway ameliorates the progression of liver fibrosis induced by carbon tetrachloride in rats. BMC Complement Altern Med. 2012 Sep. 16; 12(1):156.)
Rats are administered orally with CCl4 at a concentration of 0.25 μL/g in olive oil, 3 times per week for 6 weeks. Compound 25 is given 0.1-100 mg/Kg throughout the period of the experimental procedure or only 3 weeks after CCl4 administration and then throughout the entire study. […]

[2] = system: STAM mice, NASH liver fibrosis; test: Streptozotocin and high fat diet induced liver fibrosis (STAM model); format: in vivo, mouse; settings: daily oral gavage 10-30 mg/kg, FIG. 6
Method: High fat/carbohydrate diet induced liver fibrosis is the most common reason for liver dysfunction and ultimately liver failure. NASH is induced in male mice by a single subcutaneous injection of 200 μg streptozotocin solution 2 days after birth and feeding with high fat diet after 4 weeks of age (STAM™ model).
LOXL2 inhibitor compound 112 was administered by daily oral gavage at doses between 10-30 mg/kg 8 weeks after streptozotocin application. Mice were sacrificed after NASH had been established and whole blood samples were taken via cardiac puncture. Liver samples were collected and washed with cold saline. Liver weight was measured. The left lateral, right and caudate lobes of livers were snap frozen in liquid nitrogen and stored at −80° C. For HE staining, sections were cut from paraffin blocks of liver tissue prefixed in Bouin's solution and stained with Lillie-Mayer's Hematoxylin and eosin solution. NAFLD Activity score (NAS) was calculated according to the criteria of Kleiner (Kleiner D E. et al., Design and validation of a histological scoring system for nonalcoholic fatty liver disease. Hepatology, 2005; 41:1313). To visualize collagen deposition, Bouin's fixed liver sections were stained using picro-Sirius red solution and the area of fibrosis was quantified (See FIG. 6).

[3] = system: bleomycin induced lung fibrosis; test: Bleomycin induced lung fibrosis model; format: in vivo; settings: mouse, intranasal bleomycin, 15 mg/kg
Method: Bleomycin induced lung fibrosis in rodents is a widely accepted experimental model to determine the anti-fibrotic activity of therapeutic agents.
Fibrosis is induced by intranasal administered of bleomycin sulphate at a dose of 0.05 U/mouse in a total volume of 50 uL PBS (see Corbel, M., et al Inhibition of bleomycin-induced pulmonary fibrosis in mice by the matrix metalloproteinase inhibitor batimastat J Pathol. 2001 April; 193(4):538-45.) Compound 12 is given 0.1-100 mg/Kg throughout the period of the experimental procedure or 7 days after bleomycin administration and then throughout the entire study.
Formalin fixed lungs sections stained with haematoxylin and eosin are assessed for fibrosis as per the scale outlined by Ashcroft et al (Simple method of estimating severity of pulmonary fibrosis on a numerical scale J Clin Pathol 1988; 41:467-470).

**Q.** Which “inhibition of liver collagen by hydroxyproline analysis” value ([1]; CCl4 model, statistically significant) does the source give for Cc1c(-c2cccc(S(=O)(=O)N(C)C)c2)c2ncccc2n1C/C(F)=C/CN [Compound 25, (Z)-3-(1-(4-amino-2-fluorobut-2-en-1-yl)-2-methyl-1H-pyrrolo[3,2-b]pyridin-3-yl)-N,N-dimethylbenzenesulfonamide Dihydrochloride] here?
**A.** > 30%

**Q.** What about the “reduction of liver fibrosis by liver sirius red staining with quantification” value ([1]; rats, CCl4 orally 6 weeks, vs vehicle-treated group) of the same molecule?
**A.** up to 50%

**Q.** Cc1ccc2c(n1)c(-c1cccc(S(C)(=O)=O)c1)c(C)n2C/C(F)=C/CN [Compound 112, (Z)-4-(2,5-dimethyl-3-(3-(methylsulfonyl)phenyl)-1H-pyrrolo[3,2-b]pyridin-1-yl)-3-fluorobut-2-en-1-amine Dihydrochloride] was tested. Which “liver fibrosis (picro-Sirius red area of fibrosis)” value [2] did it give?
**A.** reduce lilver fibrosis

**Q.** How did the “Ashcroft score in the lungs” value [3] turn out when CCOC(=O)c1ccc2c(c1)c(-c1cccc(S(=O)(=O)N(C)C)c1)c(C)n2C/C(F)=C/CN [Compound 12, (Z)-ethyl 1-(4-amino-2-fluorobut-2-en-1-yl)-3-(3-(N,N-dimethylsulfamoyl)phenyl)-2-methyl-1H-indole-5-carboxylate] was run?
**A.** significantly reduced
